Results from patent US20030105121A1, “Method of preventing lipodystrophy syndrome or reversing a pre-existing syndrome in HIV-infected patients being treated with antiretroviral agents” (priority 1999, published 2003).
Entries after “also recorded” stand apart in the source; their conditions may differ.

What was measured:
lipodystrophy = test: Case histories (Examples a-g): LDN treatment of pre-existing lipodystrophy; assay type: in vivo, human; settings: for serum cholesterol after resuming naltrexone: Example a nine months (from 270), Example d 12 months (from 360)
Excerpt: One will have noted that the above case experience was entirely focused on limiting the risk of patients who were at the time free of lipodystrophy symptoms developing such symptoms during their antiretroviral therapy. This is explained by the fact that due to historical circumstances, i.e. the only recent introduction of antiretroviral therapy, the patients in this group were all being treated with naltrexone as described before being exposed to antiretroviral therapy. […] This was not anticipated and is considered to be a quite surprising finding.

[1] = Long experience with low dose naltrexone: side effects; assay type: in vivo, human
Description: Long experience has shown the perhaps three percent (3%) of patients receiving the drug at a 4.5 mg. dosage per day may suffer sleep disturbance lasting more than two or three days. Where this has been observed, reduction of the dosage to 3.0 mg. generally returns the sleep pattern to normalcy.

HIV [2] = test: Experience with low dose naltrexone treatment of HIV; assay type: in vivo, human; settings: low dose naltrexone alone
Excerpt: I have already disclosed in U.S. Pat. No. 4,888,346, issued Dec. 19, 1989, as a continuation of Ser. No. 06/916,180, filed Oct. 7, 1986, the administration of an essentially pure opiate receptor antagonist at a low dose level to patients suffering from acquired immune deficiency syndrome (or AIDS) in any of its known states, including AIDS-related complex. For this treatment, the amount of the essentially pure opiate receptor antagonist was required to be at a quite low level corresponding in results to those obtained by the administration of Naltrexone at a dosage level of from 1.0 mg. to 10 mg., preferably at a dosage level of 1.0 mg. to about 5 mg., and most preferably up to about 3.0 mg, all per day. At dosage levels above about 10 mg. per day, not only were the desired therapeutic results not obtained but the effect of the treatment appeared to be negative in acerbating the disease.

HIV [3] = assay type: in vivo; settings: four continuously undetectable patients, last six months of the study
Excerpt: (§1) Because individual examples of treatment histories are of little value in discerning the effectiveness of a given treatment for HIV/AIDS infections, and especially effectiveness in reducing the likelihood of developing a highly variable side effect such as lipodystrophy, due among other things to wide differences in the initial extent of the infection as well as in the response of any given individual, a group of 85 different cases will be evaluated as a group in the following discussion. This number is believed to be a sufficiently large statistical sample to permit a reasonable judgment to be made of the effectiveness of the treatment of this invention.
The medication status of the group at the time of initiation of PI treatment was as follows: Due to historical circumstances, i.e. the predilection in view of the earlier patent of the applicant to treating HIV/AIDS patients with naltrexone, all individuals of the group were already receiving naltrexone at the low dosage level. Based on blood count of […] lymphocytes, individual clinical history and personal patient preference, 60 had already been receiving, or were started on, lamivudine (NA) while 49 of the 65 were also receiving zidovudine (NA) and 4 of the 69 were receiving a combination of lamivudine and stavovudine, bearing in mind that the NA group of antivirals had been available for the longest time. […]

[4] = human, in vivo
Excerpt: as §1
The medication status of the group at the time of initiation of PI treatment was as follows: Due to historical circumstances, i.e. the predilection in view of the earlier patent of the applicant to treating HIV/AIDS patients with naltrexone, all individuals of the group were already receiving naltrexone at the low dosage level. Based on blood count of […] lymphocytes, individual clinical history and personal patient preference, 60 had already been receiving, or were started on, lamivudine (NA) while 49 of the 65 were also receiving zidovudine (NA) and 4 of the 69 were receiving a combination of lamivudine and stavovudine, bearing in mind that the NA group of antivirals had been available for the longest time. […] Patients already on any of the NA agents, as just specified, were continued on this treatment during the study. The remaining 25 were receiving no medications (other than naltrexone) at the start of the study.

lipodystrophy syndrome = settings: in vivo; cited from earlier work
[5] = 3.0 mg qhs added to ARV, single cases
[6] = 3.0 mg qhs added to ARV, single cases, listed as LDN

SMILES: O=C1CC[C@@]2(O)[C@H]3Cc4ccc(O)c5c4[C@@]2(CCN3CC2CC2)[C@H]1O5 [naltrexone, Naltrexone]
- serum triglycerides after resuming LDN (lipodystrophy; 3.0 mg qhs added to ARV, 12 months, from 620): 140
- reduction of "buffalo hump" (lipodystrophy; 3 mg qhs added to ARV, nine months): about 50%
- serum cholesterol after resuming naltrexone (lipodystrophy; 3 mg qhs added to ARV): 190
- serum cholesterol after resuming naltrexone (lipodystrophy; 3 mg qhs added to ARV, listed as LDN): 220
- other physical signs (subcutaneous tissue, breast size) (lipodystrophy; [5]): returned
- waist size outcome (lipodystrophy; [5]): gradually reduced to its former size; also recorded: returned to their previous normal state
- other physical signs (subcutaneous tissue, breast size) (lipodystrophy; [6]): about one-half
- waist size outcome (lipodystrophy; [6]): partially cleared by about one-half
- decrease in waist size (lipodystrophy; 4.5 mg qhs added to ARV, eight weeks): 4 ″
- insulin need (lipodystrophy; 4.5 mg qhs added to ARV, four weeks, from 90 units): 20 units per day
- waist size (lipodystrophy; 4.5 mg qhs added to ARV, three months, from 44″): 40 ″
- "buffalo hump" outcome (lipodystrophy; 3.0-4.5 mg qhs added to ARV, single cases): completely disappeared; also recorded: shrank and eventually disappeared
- signs of lipodystrophy overall (lipodystrophy; 3.0-4.5 mg qhs added to ARV, single cases, about eight months, listed as LDN): gradually disappeared; also recorded: complete reversal; also recorded: gradual clearing in the residual signs
- "buffalo hump" outcome (lipodystrophy; 3.0-4.5 mg qhs added to ARV, single cases, listed as LDN): about one-half; also recorded: largely disappeared
- patients with sleep disturbance lasting more than two or three days ([1]; 4.5 mg. dosage per day): ~3%
- side effects or toxicity ([1]; low dose levels): minimal side effects or evidence of toxicity
- effect on the patient's HIV condition (HIV [2]): stabilizing effect

SMILES: Cc1c(O)cccc1C(=O)N[C@@H](CSc1ccccc1)[C@H](O)CN1C[C@H]2CCCC[C@H]2C[C@H]1C(=O)NC(C)(C)C [nelfinavir]
- change in viral levels after substitution of indinavir (HIV [3]): did not result in any appreciable change in viral levels
- side effect associated with the drug [4]: persistent diarrhea

SMILES: CC(C)(C)NC(=O)[C@@H]1CN(Cc2cccnc2)CCN1C[C@@H](O)C[C@@H](Cc1ccccc1)C(=O)N[C@H]1c2ccccc2C[C@H]1O [indinavir]
- persistent side effects [4]: mild nausea

SMILES: Cc1ccnc2c1NC(=O)c1cccnc1N2C1CC1 [nevirapine]
- patients developing body-wide allergic rashes with hives and itching [4]: Seven

SMILES: Cc1cn([C@H]2C=C[C@@H](CO)O2)c(=O)[nH]c1=O [zerit, stavudine]
- rate or risk of lipodystrophy (lipodystrophy syndrome): at least 40%
